As a reminder, the EC50 is the concentration giving half of the maximal effect.

≈ marks a conversion by molar mass, not a printed value. Read-outs that look alike come from different tables or passages of the source.

We go through four molecules from patent US20010034039A1, “Bioluminescent organism for detecting toxic substances” (priority 2000, published 2001).

For assay [1], the system named is oceanic luminescent bacterium (Vibrio sp. Isolate). As to the kind of experiment: microbe, parasite or virus in culture. The format is cell-based. The conditions noted are these: read-out: EC50 (decrease luminescence by 50%).
Assay [2] concerns YH9-RC deposited under KCTC 0730BP. As to the kind of experiment: microbe, parasite or virus in culture. The format is cell-based. The following applies: Janthinobacterium lividum, read-out: EC50 (decrease luminescence by 50%). The procedure:
Toxicity tests for a variety of substances described in the following Table 2 were conducted using YH9-RC deposited under KCTC 0730BP obtained in the Example 1 to calculate EC50 (Effective concentration 50: the effective concentration of tested organism that decrease luminescence by 50%). It was compared with the EC50 value using oceanic luminescent bacterium (Vibrio sp. Isolate) that was most commonly used in a conventional toxicity test. First, the YH9-RC colony was cultured in an R2A broth containing 5 μg/ml of tetracycline (liquid culture medium containing Bacto yeast extract 0.5 wt %, Bacto proteose peptone No. 3 0.5 wt %, Bacto casamino acids 0.5 wt %, Bacto dextrose 0.5 wt %, soluble starch 0.5 wt %, sodium pyruvate 0.5 wt %, potassium phosphate dibasic 0.5 wt %, and magnesium sulfate 0.5 wt %) for 18 hours or more, and then it was sub-cultured in an R2A broth for another 7 to 8 hours, and the aliquot of the fresh culture was used in the toxicity test. In addition, 80 μl of the cell culture liquid, 80 μl of 0.03 wt % aldehyde aqueous solution, and 40 μl of a toxic sample diluted to various concentrations were mixed in a test tube of a luminometer, […]

The subject of assay [3] is YH-9. The following applies: YH9 strain. The text has this: Then, the YH9 was transformed, and luminescent genes were introduced therein.

For `c1ccccc1` [Benzene], the EC50 in assay [1] (5 min) was 478 µg/mL (≈ 6120 µM); in assay [1] (10 min), 607 µg/mL (≈ 7770 µM); in assay [1] (0.25 h), 747 µg/mL (≈ 9570 µM); in assay [2] (5 min) it was 75.2 µg/mL (≈ 962 µM); in assay [2] (10 min), 50.9 µg/mL (≈ 652 µM); in assay [2] (0.25 h) it was 35.1 µg/mL (≈ 449 µM).
For the molecule `Oc1ccccc1` [Phenol], the EC50 amounted to 116 µg/mL (≈ 1230 µM) in assay [1] (5 min); 105 µg/mL (≈ 1120 µM) in assay [1] (10 min); 63.1 µg/mL (≈ 670 µM) in assay [1] (0.25 h); 26.5 µg/mL (≈ 282 µM) in assay [2] (5 min); 12 µg/mL (≈ 128 µM) in assay [2] (10 min); 12.7 µg/mL (≈ 135 µM) in assay [2] (0.25 h). The “MIC for phenol among various Gram-negative isolates” value in assay [3] is “lowest MIC”.
With `Cc1ccccc1` [Toluene], the 50% effective concentration (EC50) in assay [1] (5 min) worked out at 87.1 µg/mL (≈ 945 µM); in assay [1] (10 min), 120 µg/mL (≈ 1300 µM); in assay [1] (0.25 h, 15 minutes), 142 µg/mL (≈ 1540 µM); in assay [2] (5 min, YH9-RC, 5 minutes), 5.61 µg/mL (≈ 60.9 µM); in assay [2] (10 min, YH9-RC, 10 minutes), 5.65 µg/mL (≈ 61.3 µM); in assay [2] (0.25 h, YH9-RC, 15 minutes) it was 6.3 µg/mL (≈ 68.4 µM).
Turning to `Cc1ccc(C)cc1` [p-xylene], the EC50 amounted to 27.4 µg/mL (≈ 258 µM) in assay [1] (5 min); 105 µg/mL (≈ 990 µM) in assay [1] (10 min); 63.1 µg/mL (≈ 594 µM) in assay [1] (0.25 h, 15 minutes); 45.3 µg/mL (≈ 427 µM) in assay [2] (5 min, YH9-RC, 5 minutes); 37.7 µg/mL (≈ 355 µM) in assay [2] (10 min, YH9-RC, 10 minutes); 49.8 µg/mL (≈ 469 µM) in assay [2] (0.25 h, YH9-RC, 15 minutes).
